According to publication PMC12292835, “Amylin Receptor 1 Mutagenesis Revealed a Potential Role of Calcitonin Serine 29 in Receptor Interaction” (Biomedicines, 2025):
Where a SMILES comes first, the peptide text is derived from it. The star is where a group is joined. FITC = O=C1OC2(c3ccc(O)cc3Oc3cc(O)ccc32)c2ccc(NC(=S)*)cc21

Tests used:
[1] = target: T1, amylin receptor 1 ECD with calcitonin receptor N135D mutation (Homo sapiens, UniProt O60894+P30988, N135D); assay: FP saturation binding, N135D; details: for Average fluorescence intensity change upon receptor ECD binding: % of a free probe intensity, Mean ± S.D., max receptor 3 μM (sCT), 1 μM (AC413); for effect of mutation on binding affinity: in words
T1 construct: pHLsec/hRAMP1.24–111-(GSA)3-hCTR.34–141.N135D-H6 (D-pJS002); H6 (hexahistidine) (C); made in house; host or cells: HEK293 (transient transfection, secreted, N-glycosylated)
Source text: (§1) pHLsec-based vectors were used to express wild-type and mutated amylin receptor 1 extracellular domains as secreted proteins to cell culture media. The plasmid DNA construct of the wild-type amylin receptor 1 extracellular domain, pHLsec/hRAMP1.24–111-(GSA)3-hCTR.34–141-H6 (H-pSL005) was previously described. The following DNA vector plasmids were made for this study: pHLsec/hRAMP1.24–111-(GSA)3-hCTR.34–141.D97A-H6 (D-pSL009), pHLsec/hRAMP1.24–111-(GSA)3-hCTR.34–141.D97E-H6 (D-pJS001), pHLsec/hRAMP1.24–111-(GSA)3-hCTR.34–141.D101A-H6 (D-pJJ003), pHLsec/hRAMP1.24–111-(GSA)3-hCTR.34–141.D101E-H6 (D-pJJ002), pHLsec/hRAMP1.24–111-(GSA)3-hCTR.34–141.E123A-H6 (D-pJJ004), pHLsec/hRAMP1.24–111-(GSA)3-hCTR.34–141.E123D-H6 (D-pJJ001), pHLsec/hRAMP1.24–111-(GSA)3-hCTR.34–141.N124A-H6 (D-pJS005), pHLsec/hRAMP1.24–111-(GSA)3-hCTR.34–141.N124D-H6 (D-pJS006), pHLsec/hRAMP1.24–111-(GSA)3-hCTR.34–141.N135A-H6 (D-pJW001), and pHLsec/hRAMP1.24–111-(GSA)3-hCTR.34–141.N135D-H6 (D-pJS002). The mutations were introduced to the calcitonin receptor extracellular domain by using DNA Assembly reaction. Coding sequences of the receptor expression vectors were confirmed with Sanger sequencing by Bionics (Seoul, Republic of Korea). DNA plasmid vectors were extracted and were purified from bacterial cells with NucleoBond® Extra Midi Plus kit (Macherey-Nagel, Germany). The purified DNA vectors were stored at −20 °C until their use for mammalian cell transfection.
(§2) The overall experimental procedure of reconstituting the functional amylin receptor 1 extracellular domain (ECD) as the fusion protein of RAMP1 ECD and the calcitonin receptor ECD was previously described. The wild-type and mutated amylin receptor 1 ECDs were expressed from HEK293 cells with transient transfection with polyethylenimine. The expressed receptor proteins were secreted to cell culture media for 4 days at 37 °C. The media were collected for the receptor protein purification. Initial dialysis was performed with the dialysis buffer (Tris 25 mM (pH 7.4), NaCl 150 mM, and imidazole 10 mM) overnight. […] Then, a size exclusion column chromatography (SEC) was performed with SEC column (Cytiva, HiLoad® 16/600 Superdex® 200 pg) and SEC buffer (Tris 50 mM (pH 7.4), NaCl 150 mM, and glycerol (v/v) 10%) as previously described. As the final step, the purified receptor proteins were dialyzed to storage buffer (HEPES 25 mM (pH 7.4), NaCl 150 mM, and glycerol (v/v) 50 %) and were stored at −60 °C until their use for the receptor–ligand binding assay. […]
(§3) The overall procedure of the FP binding assay with a saturation binding format was previously described. […] FITC-labeled peptide probes were incubated for 1 h at room temperature with the purified receptor protein prior to fluorescence signal measurement. […]

[2] = target: T2, amylin receptor 1 ECD with calcitonin receptor N124A mutation (Homo sapiens, UniProt O60894+P30988, N124A); assay: FP saturation binding, N124A; details: for Average fluorescence intensity change upon receptor ECD binding: % of a free probe intensity, Mean ± S.D., N124A, max receptor 1 μM; for decrease of binding affinity: N124A versus wild-type receptor ECD
T2 construct: pHLsec/hRAMP1.24–111-(GSA)3-hCTR.34–141.N124A-H6 (D-pJS005); H6 (hexahistidine) (C); made in house; host or cells: HEK293 (transient transfection, secreted, N-glycosylated)
Source text: as §1, §2, §3

[3] = target: T3, amylin receptor 1 ECD with calcitonin receptor D97A mutation (Homo sapiens, UniProt O60894+P30988, D97A); assay: FP saturation binding, D97A; details: for Average fluorescence intensity change upon receptor ECD binding: % of a free probe intensity, Mean ± S.D., max receptor 3 μM (sCT), 1 μM (AC413)
T3 construct: pHLsec/hRAMP1.24–111-(GSA)3-hCTR.34–141.D97A-H6 (D-pSL009); H6 (hexahistidine) (C); made in house; host or cells: HEK293 (transient transfection, secreted, N-glycosylated)
Source text: as §1, §2, §3

[4] = target: T4, amylin receptor 1 ECD with calcitonin receptor E123A mutation (Homo sapiens, UniProt O60894+P30988, E123A); assay: FP saturation binding, E123A; details: for Average fluorescence intensity change upon receptor ECD binding: % of a free probe intensity, Mean ± S.D., E123A, max receptor 3 μM (sCT), 1 μM (AC413); for decrease of binding affinity: E123A versus wild-type receptor ECD
T4 construct: pHLsec/hRAMP1.24–111-(GSA)3-hCTR.34–141.E123A-H6 (D-pJJ004); H6 (hexahistidine) (C); made in house; host or cells: HEK293 (transient transfection, secreted, N-glycosylated)
Source text: as §1, §2, §3

[5] = target: T5, amylin receptor 1 ECD with calcitonin receptor E123D mutation (Homo sapiens, UniProt O60894+P30988, E123D); assay: FP saturation binding, E123D; details: for Average fluorescence intensity change upon receptor ECD binding: % of a free probe intensity, Mean ± S.D., max receptor 3 μM (sCT), 1 μM (AC413); for effect of mutation on binding affinity: compared with E123A, in words
T5 construct: pHLsec/hRAMP1.24–111-(GSA)3-hCTR.34–141.E123D-H6 (D-pJJ001); H6 (hexahistidine) (C); made in house; host or cells: HEK293 (transient transfection, secreted, N-glycosylated)
Source text: as §1, §2, §3

T1 sequence (O60894 24-111): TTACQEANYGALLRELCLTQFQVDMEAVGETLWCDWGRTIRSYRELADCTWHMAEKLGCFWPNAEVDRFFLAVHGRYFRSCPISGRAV
T1 sequence (P30988 34-141 N135D): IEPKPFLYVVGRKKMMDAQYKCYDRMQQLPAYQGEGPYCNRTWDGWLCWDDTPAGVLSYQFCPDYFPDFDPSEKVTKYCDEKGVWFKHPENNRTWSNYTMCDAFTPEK
T4 sequence (O60894 24-111): as the sequence (O60894 24-111) above
T4 sequence (P30988 34-141 E123A): as the sequence (P30988 34-141 N135D) above, with E90A, D102N counted along it
T3 sequence (O60894 24-111): as the sequence (O60894 24-111) above
T3 sequence (P30988 34-141 D97A): as the sequence (P30988 34-141 N135D) above, with D64A, D102N counted along it
T5 sequence (O60894 24-111): as the sequence (O60894 24-111) above
T5 sequence (P30988 34-141 E123D): as the sequence (P30988 34-141 N135D) above, with E90D, D102N counted along it
T2 sequence (O60894 24-111): as the sequence (O60894 24-111) above
T2 sequence (P30988 34-141 N124A): as the sequence (P30988 34-141 N135D) above, with N91A, D102N counted along it

Row | Average fluorescence intensity change upon receptor ECD binding [1] [%] | effect of mutation on binding affinity [1] | Average fluorescence intensity change upon receptor ECD binding [2] [%] | decrease of binding affinity [2] | Average fluorescence intensity change upon receptor ECD binding ([3]; D97A) [%] | decrease of binding affinity ([3]; D97A versus wild-type receptor ECD) [fold] | Average fluorescence intensity change upon receptor ECD binding [4] [%] | decrease of binding affinity [4] [fold] | Average fluorescence intensity change upon receptor ECD binding [5] [%] | effect of mutation on binding affinity ([3]; D97A, in words) | Structure (SMILES) | effect of mutation on binding affinity [5]
1 | 99 ± 0.1 | failed to recover the binding affinity | 85 ± 11 | more than 10 fold | 75 ± 12 | 6.8 | 72 ± 1 | 4.5 | 72 ± 6 | – | C[C@@H](O)[C@H](NC(=O)[C@H](CC(N)=O)NC(=O)[C@@H](NC(=O)[C@H](CCCNC(=N)N)NC(=O)[C@@H]1CCCN1C(=O)[C@H](Cc1ccc(O)cc1)NC(=S)Nc1ccc2c(c1)C(=O)OC21c2ccc(O)cc2Oc2cc(O)ccc21)[C@@H](C)O)C(=O)NCC(=O)N[C@@H](CO)C(=O)NCC(=O)N[C@H](C(=O)N1CCC[C@H]1C(N)=O)[C@@H](C)O [FITC-sCT(22–32)] ({FITC}-YPRTNTGSGTP-NH2; C-terminus assumed) | fully restored the decreased binding affinity
2 | 85 ± 15 | failed to recover the binding affinity | 87 ± 2 | 8.2 fold | 71 ± 4 | – | 77 ± 13 | 2.3 | 72 ± 4 | not significantly changed | CC(C)C[C@H](NC(=O)[C@H](CCCNC(=N)N)NC(=O)[C@@H](NC(=O)[C@H](CC(C)C)NC(=O)[C@H](Cc1ccccc1)NC(=O)[C@H](CC(N)=O)NC(=O)[C@H](C)NC(=S)Nc1ccc2c(c1)C(=O)OC21c2ccc(O)cc2Oc2cc(O)ccc21)C(C)C)C(=O)N[C@@H](CCC(N)=O)C(=O)N[C@H](C(=O)N[C@@H](Cc1ccc(O)cc1)C(=O)N1CCC[C@H]1C(=O)N[C@@H](CCCNC(=N)N)C(=O)N[C@H](C(=O)N[C@@H](CC(N)=O)C(=O)N[C@H](C(=O)NCC(=O)N[C@@H](C)C(=O)N[C@@H](CC(N)=O)C(=O)N[C@H](C(=O)N1CCC[C@H]1C(N)=O)[C@@H](C)O)C(C)C)[C@@H](C)O)[C@@H](C)O [FITC-AC413(6–25) Y25P] ({FITC}-ANFLVRLQTYPRTNVGANTP-NH2; C-terminus assumed) | failed to restore the decreased binding affinity
